# Test results from ChEMBL document CHEMBL1926527, “Pharmacophore insights into rpoB gene mutations in Mycobacterium tuberculosis rifampicin resistant isolates” (2012).
# Assays:
# Format in all cases: functional
# [1] = system: Mycobacterium tuberculosis; assay: Antimycobacterial activity against Mycobacterium tuberculosis isolate 307 expressing rpoB Ser531Leu mutant gene by resazurin microtiter assay
# [2] = system: Mycobacterium tuberculosis; assay: Antimycobacterial activity against Mycobacterium tuberculosis isolate 311 expressing rpoB mutant gene by resazurin microtiter assay
# [3] = system: Mycobacterium tuberculosis; assay: Antimycobacterial activity against Mycobacterium tuberculosis isolate 349 expressing rpoB mutant gene by resazurin microtiter assay
# [4] = system: Mycobacterium tuberculosis; assay: Antimycobacterial activity against Mycobacterium tuberculosis isolate 308 expressing rpoB His526Asp mutant gene by resazurin microtiter assay
# [5] = system: Mycobacterium tuberculosis; assay: Antimycobacterial activity against Mycobacterium tuberculosis isolate 309 expressing rpoB His526Arg mutant gene by resazurin microtiter assay
# [6] = system: Mycobacterium tuberculosis; assay: Antimycobacterial activity against Mycobacterium tuberculosis isolate 344 expressing rpoB Ser522Leu mutant gene by resazurin microtiter assay
# [7] = system: Mycobacterium tuberculosis; assay: Antimycobacterial activity against Mycobacterium tuberculosis isolate 363 expressing rpoB Asp516Val mutant gene by resazurin microtiter assay
# [8] = system: Mycobacterium tuberculosis; assay: Antimycobacterial activity against Mycobacterium tuberculosis isolate 352 expressing rpoB Asp516Leu and Phe514Phe double mutant gene by resazurin microtiter assay
# [9] = system: Mycobacterium tuberculosis; assay: Antimycobacterial activity against Mycobacterium tuberculosis isolate 343 expressing rpoB Asp516Val mutant gene by resazurin microtiter assay
# [10] = system: Mycobacterium tuberculosis; assay: Antimycobacterial activity against Mycobacterium tuberculosis isolate 364 expressing rpoB Ser522Leu mutant gene by resazurin microtiter assay
# [11] = system: Mycobacterium tuberculosis; assay: Antimycobacterial activity against Mycobacterium tuberculosis isolate 80,014 expressing rpoB Arg529Lys and Leu530Met mutant gene by resazurin microtiter assay
# [12] = system: Mycobacterium tuberculosis; assay: Antimycobacterial activity against multidrug-resistant Mycobacterium tuberculosis clinical isolate obtained from tuberculosis patient infected in BALB/c mouse assessed as decrease in bacterial burden in lung at 5 mg/kg, po administered daily for 2 months measured after 1 month relative to untreated control
# [13] = system: Mycobacterium tuberculosis; assay: Antimycobacterial activity against multidrug-resistant Mycobacterium tuberculosis clinical isolate obtained from tuberculosis patient infected in BALB/c mouse assessed as decrease in bacterial burden in lung at 5 mg/kg, po administered daily for 2 months measured after 2 months; set-up: scale not given: the % may be the effect or the level left
# [14] = system: Mycobacterium tuberculosis; assay: Antimycobacterial activity against multidrug-resistant Mycobacterium tuberculosis clinical isolate obtained from tuberculosis patient infected in BALB/c mouse assessed as decrease in surface area affected by pneumonia in lung at 5 mg/kg, po administered daily for 2 months measured after 2 months; set-up: scale not given: the % may be the effect or the level left
SMILES,MIC [1] [µg/mL],MIC [2] [µg/mL],MIC [3] [µg/mL],MIC [4] [µg/mL],MIC [5] [µg/mL],MIC [6] [µg/mL],MIC [7] [µg/mL],MIC [8] [µg/mL],MIC [9] [µg/mL],MIC [10] [µg/mL],MIC [11] [µg/mL],fold change (FC) [12],Activity [13] [%],Activity [14] [%]
CO[C@H]1/C=C/O[C@@]2(C)Oc3c(C)c(O)c4c(c3C2=O)C2=NC3(CCN(CC(C)C)CC3)N(C(C)=O)C2=C(NC(=O)/C(C)=C\C=C\[C@H](C)[C@H](O)[C@@H](C)[C@@H](O)[C@@H](C)[C@H](OC(C)=O)[C@@H]1C)C4=O,2,>2,2,>2,0.25,0.06,0.06,1,>2,0.25,0.25,>3,50,30
CO[C@H]1/C=C/O[C@@]2(C)Oc3c(C)c(O)c4c(c3C2=O)C2=NC3(CCN(CC(C)C)CC3)NC2=C(NC(=O)/C(C)=C\C=C\[C@H](C)[C@H](O)[C@@H](C)[C@@H](O)[C@@H](C)[C@H](O)[C@@H]1C)C4=O,>2,>2,>2,>2,0.25,2,1,0.12,>2,>2,1,–,–,–
CCCCCCCCCCCCCCCC(=O)N1C2=C3NC(=O)/C(C)=C\C=C\[C@H](C)[C@H](O)[C@@H](C)[C@@H](O)[C@@H](C)[C@H](OC(C)=O)[C@H](C)[C@@H](OC)/C=C/O[C@@]4(C)Oc5c(C)c(O)c(c(c5C4=O)C2=NC12CCN(CC(C)C)CC2)C3=O,>2,>2,>2,>2,>2,>2,>2,>2,>2,>2,2,–,–,–
C=CCCCCCCCCC(=O)N1C2=C3NC(=O)/C(C)=C\C=C\[C@H](C)[C@H](O)[C@@H](C)[C@@H](O)[C@@H](C)[C@H](OC(C)=O)[C@H](C)[C@@H](OC)/C=C/O[C@@]4(C)Oc5c(C)c(O)c(c(c5C4=O)C2=NC12CCN(CC(C)C)CC2)C3=O,>2,>2,>2,>2,1,0.5,0.25,0.25,2,2,0.5,>3,50,15
CO[C@H]1/C=C/O[C@@]2(C)Oc3c(C)c(O)c4c(c3[C@H]2O)C2=NC3(CCN(CC(C)C)CC3)NC2=C(NC(=O)/C(C)=C\C=C\[C@H](C)[C@H](O)[C@@H](C)[C@@H](O)[C@@H](C)[C@H](O)[C@@H]1C)C4=O,>2,2,>2,>2,2,>2,>2,0.5,>2,>2,2,–,–,–
CO[C@H]1/C=C/O[C@@]2(C)Oc3c(C)c(O)c4c(c3[C@H]2O)C2=NC3(CCN(CC(C)C)CC3)N(C(C)=O)C2=C(NC(=O)/C(C)=C\C=C\[C@H](C)[C@H](O)[C@@H](C)[C@@H](O)[C@@H](C)[C@H](OC(C)=O)[C@@H]1C)C4=O,>2,>2,>2,>2,2,0.5,0.5,>2,>2,>2,0.5,–,–,–
CO[C@H]1/C=C/O[C@@]2(C)Oc3c(C)c(O)c4c(c3C2=O)C2=NC3(CCN(CC(C)C)CC3)NC2=C(NC(=O)/C(C)=C\C=C\[C@H](C)[C@H](O)[C@@H](C)[C@@H](O)[C@@H](C)[C@H](OC(C)=O)[C@@H]1C)C4=O [RIFABUTIN],2,2,1,>2,0.12,0.06,0.06,<0.06,1,0.25,0.12,–,–,–
CO[C@H]1/C=C/O[C@@]2(C)Oc3c(C)c(O)c4c(O)c(c(/C=N/N5CCN(C)CC5)c(O)c4c3C2=O)NC(=O)/C(C)=C\C=C\[C@H](C)[C@H](O)[C@@H](C)[C@@H](O)[C@@H](C)[C@H](OC(C)=O)[C@@H]1C [RIFAMPIN],>2,>2,>2,>2,0.06,>2,>2,>2,>2,>2,2,–,–,–
